Experimental data from US12161722B2, “Bifunctional heterocyclic compound having BTK degradation function via ubiquitin proteasome pathway, and use thereof” (KOREA RESEARCH INSTITUTE OF CHEMICAL TECHNOLOGY, priority 2021, dated 2024).

Each molecule was assayed against T1, WT BTK protein (Homo sapiens, UniProt Q06187) (assay: BTK protein degradation assay (Western blotting), WT BTK). Conditions: concentration range accounting for 50% degradation of WT BTK protein, TMD-8 or RAMOS cells, 24 hours.
T1 construct: measured for intracellular BTK protein levels by Western blotting; endogenous in cells; host or cells: TMD-8 or RAMOS cells
T1 sequence (Q06187 whole entry): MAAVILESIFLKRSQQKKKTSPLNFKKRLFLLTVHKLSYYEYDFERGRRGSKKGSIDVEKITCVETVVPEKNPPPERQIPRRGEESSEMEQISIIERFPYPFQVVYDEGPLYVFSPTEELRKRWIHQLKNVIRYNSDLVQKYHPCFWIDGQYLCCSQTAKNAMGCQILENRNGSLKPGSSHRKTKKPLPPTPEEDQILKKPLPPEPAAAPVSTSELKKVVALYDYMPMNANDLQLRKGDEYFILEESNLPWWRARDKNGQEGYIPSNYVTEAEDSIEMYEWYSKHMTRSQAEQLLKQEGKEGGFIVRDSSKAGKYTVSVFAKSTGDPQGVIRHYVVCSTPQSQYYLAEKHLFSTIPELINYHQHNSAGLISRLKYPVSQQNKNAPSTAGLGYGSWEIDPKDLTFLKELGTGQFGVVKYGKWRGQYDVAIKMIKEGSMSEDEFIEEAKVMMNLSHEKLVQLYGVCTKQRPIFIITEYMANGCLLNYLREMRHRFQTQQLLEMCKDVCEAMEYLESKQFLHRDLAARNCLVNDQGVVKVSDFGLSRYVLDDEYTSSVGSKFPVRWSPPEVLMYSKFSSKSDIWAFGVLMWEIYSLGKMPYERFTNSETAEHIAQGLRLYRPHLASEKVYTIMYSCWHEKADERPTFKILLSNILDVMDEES
Format: cell-based
Procedure: TMD-8, RAMOS, or 293T BTK MUT (C481S) cells were treated with the synthesized compounds and measured for intracellular BTK protein levels by Western blotting. The protocol of the experiment using TMD-8 cells is as follows.
TMD-8 cells were resuspended in an RPMI1640 medium (Hyclone, SH30027.01, 10% FBS (Hyclone, SV30207.02), 1% penicillin-streptomycin (Welgene, LS 202-02) and the cell suspension was seeded at a density of 1×10^6 cells/mL in an amount of 1 mL per well into 12-well plates.
The 12-well plates were treated as follows. A 10 mM stock was 1/10 diluted in series with DMSO ([…]) to form final concentrations of 10, 1, 0.1, 0.01, 0.001, and 0.0001 mM. The compounds with such concentrations were applied to cells, followed by harvesting the cells 24 hours later. For a negative control, a 1/10 dilution of DMSO in the medium (3 mL DMSO+27 mL medium) was used.
The 1-mL cell culture in each well was passed many times through a pipette and then transferred into a 1.5-mL microtube before centrifugation (500 g, 5 min, 4° C.). The supernatant was discarded and the cell pellet was washed with PBS. After centrifugation (500 g, 5 min, 4° C.) again, the supernatant was discarded and the cell pellet was taken.
A lysis buffer was prepared as follows. RIPA buffer (Biosesang, RC2038-050-00)+0.5 mM PMSF (SIGMA, P7626)+1×Protease/Phosphatase Inhibitor (Cell signaling, 5872S) was added in an amount […] per well and left for 30 minutes on ice (vortexing at 0 and 30 minutes) before sonication (5 cycles of pulse for 10 seconds and rest for 30 seconds, 70% amplification). The supernatant obtained by centrifugation (15000 g, 15 min, 4° C.) was transferred into a new microtube. Cells in each well of 96-well plates were 1/2 diluted with the RIPA buffer and incubated at 37° C. for 30 minutes with […] of a 50:1 mixture of BCA reagents A and B in BCA Protein Assay Kit (iNtRON, 21071). After being cooled for 10 minutes, the 96-well plates were measured for absorbance at 562 nm on the BioTek, SYNERGY H1 microplate reader. Samples were prepared by protein quantification based on the absorbance measurements and then boiled at 70° C. for 10 minutes. The sample buffer used in the case was prepared by mixing a NuPAGE or a Bolt 4× sample buffer (Invitrogen) and its 10× sample reducing agent depending on the gel to be used, and protein dilution was made in a RIPI buffer.
The samples were loaded in the same amount into a NuPAGE or Bolt Bis-tris 4-12% gradient gel and allowed to run therein (200 V, 35 minutes). The separated proteins were transferred onto a […] NC membrane, using Trans-blot Turbo (BIO-RAD) (1.3 A constant, 25V limit, 15 minutes). The membrane was blocked at room temperature for 1 hour with skim milk or Intercept Blocking Buffer (LI-COR, 927-60001):0.1% TBST=1:1. The membrane was incubated with Anti BTK Rabbit (1:1,000 in 5% skim milk/0.2% TBST, size: 77 kDa, Cell signaling Technology) at 4° C. overnight O/N or at room temperature for 2 hours and with Anti GAPDH Rabbit (1:10,000 in 5% BSA/0.2% TBST, size: 36 kDa, GENETEX) and Anti β-actin mouse (1:10,000 in 5% BSA/0.2% TBST, RT, size: 43 kDa, GENETEX) at room temperature for 1 or 3 hours. Then, the membrane was washed three times with 0.5% TBST for 5 minutes each time before incubation with the second antibody Anti-Rabbit IgG (1:5,000 in 5% Skim milk/TBST, CST), IRDye® 800CW Goat anti-Rabbit IgG Secondary Antibody (1:10,000 in 5% skim/TBST, RT 45 min), or IRDye® 680RD Goat anti-Mouse IgG Secondary Antibody (1:10,000 in 5% skim/TBST, RT 45 min) for 45 minutes at room temperature in a rocker. The membrane was washed five times with 0.5% TBST for 5 minutes in each time, followed by detection with LI-COR, Odyssey. In this regard, the detection proceeded, as it was, for house-keeping genes while using SuperSignal West Pico PLUS Chemiluminescent Substrate or SuperSignal West femto Maximum Sensitivity Substrate for BTK detection. […]

SMILES	DC50 [nM]
Cc1cccc(C)c1Nc1nn(C)c2nc(Nc3ccc(N4CCN(CC5CCN(c6ccc7c(n6)C(=O)N(C6CCC(=O)NC6=O)C7=O)CC5)CC4)cc3)ncc12 (centres unmarked) [Compound 188, 3-(2-(4-((4-(4-((3-((2,6-Dimethylphenyl)amino)-1-methyl-1H-pyrazolo[3,4-d]pyrimidin-6-yl)amino)phenyl)piperazin-1-yl)methyl)piperidin-1-yl)-5-oxo-5,7-dihydro-6H-pyrrolo[3,4-b]pyridin-6-yl)piperidin-2,6-one]	0.1 to 10
Cc1cccc(C)c1Nc1nn(C)c2nc(Nc3ccc4c(c3)CN(C(=O)CN3CCN(c5ccc6c(c5)C(=O)N(C5CCC(=O)NC5=O)C6=O)CC3)CC4)ncc12 (centres unmarked) [Compound 93, 5-(4-(2-(7-((3-((2,6-dimethylphenyl)amino)-1-methyl-1H-pyrazolo [3,4-d]pyrimidin-6-yl)amino)-3,4-dihydroisoquinolin-2 (1H)-yl)-2-oxoethyl)piperazin-1-yl)-2-(2,6-dioxopiperidin-3-yl)isoindoline-1,3-dione]	10 to 1000
Cc1cccc(C)c1Nc1nn(C)c2nc(Nc3ccc(C4CCN(CC5CCN(c6ccc7c(c6)C(=O)N(C6CCC(=O)NC6=O)C7=O)CC5)CC4)nc3)ncc12 (centres unmarked) [Compound 164, 5-(4-((4-(5-((3-((2,6-Dimethylphenyl)amino)-1-methyl-1H-pyrazolo[3,4-d]pyrimidin-6-yl)amino)pyridin-2-yl)piperidin-1-yl)methyl)piperidin-1-yl)-2-(2,6-dioxopiperidin-3-yl)isoindoline-1,3-dione]	0.1 to 10
Cc1cccc(C)c1Nc1nn(C)c2nc(Nc3ccc4c(c3)CN(CC3CCN(C(=O)CCc5cccc6c5CN(C5CCC(=O)NC5=O)C6=O)CC3)CC4)ncc12 (centres unmarked) [Compound 64, 3-(4-(3-(4-((7-((3-((2,6-Dimethylphenyl)amino)-1-methyl-1H-pyrazolo[3,4-d]pyrimidin-6-yl)amino)-3,4-dihydroisoquinolin-2 (1H)-yl)methyl)piperidin-1-yl)-3-oxopropyl)-1-oxoisoindolin-2-yl)piperidin-2,6-one]	0.1 to 10
Cc1cccc(C)c1Nc1nn(C)c2nc(Nc3ccc(N4CCN(CC5CCN(c6ccc7c(c6)C(=O)N(C6CCC(=O)NC6=O)C7=O)CC5)CC4)cc3)ncc12 (centres unmarked) [Compound 163, 5-(4-((4-(4-((3-((2,6-Dimethylphenyl)amino)-1-methyl-1H-pyrazolo[3,4-d]pyrimidin-6-yl)amino)phenyl)piperazin-1-yl)methyl)piperidin-1-yl)-2-(2,6-dioxopiperidin-3-yl)isoindoline-1,3-dione]	0.1 to 10
Cc1cccc(C)c1Nc1nn(C)c2nc(Nc3ccc4c(c3)CN(CC(=O)NCc3ccc5c(c3)CN(C3CCC(=O)NC3=O)C5=O)CC4)ncc12 (centres unmarked) [Compound 94, 2-(7-((3-((2,6-dimethylphenyl)amino)-1-methyl-1H-pyrazolo[3,4-d]pyrimidin-6-yl)amino)-3,4-dihydroisoquinolin-2 (1H)-yl)-N-((2-(2,6-dioxopiperidin-3-yl)-1-oxoisoindolin-5-yl)methyl)acetamide]	10 to 1000
Cc1cccc(C)c1Nc1nn(C)c2nc(Nc3ccc4c(c3)CN(C(=O)[C@H]3CC[C@H](OC5CCN(c6ccc7c(c6)C(=O)N(C6CCC(=O)NC6=O)C7=O)CC5)CC3)CC4)ncc12 (some centres unmarked) [Compound 128, 5-(4-(((1r,4r)-4-(7-((3-((2,6-dimethylphenyl)amino)-1-methyl-H-pyrazolo[3,4-d]pyrimidin-6-yl)amino)-1,2,3,4-tetrahydroisoquinoline-2-carbonyl)cyclohexyl)oxy)piperidin-1-yl)-2-(2,6-dioxopiperidin-3-yl)isoindoline-1,3-dione]	0.1 to 10
Cc1cccc(C)c1Nc1nn(C)c2nc(Nc3ccc4c(c3)CCN(C[C@H]3CCN(c5ccc6c(c5)C(=O)N(C5CCC(=O)NC5=O)C6=O)C3)C4)ncc12 (stereo partly drawn) [Compound 173, 5-((R)-3-((6-((3-((2,6-Dimethylphenyl)amino)-1-methyl-1H-pyrazolo[3,4-d]pyrimidin-6-yl)amino)-3,4-dihydroisoquinolin-2 (1H)-yl)methyl)pyrrolidin-1-yl)-2-(2,6-dioxopiperidin-3-yl)isoindoline-1,3-dione]	0.1 to 10
Cc1cccc(C)c1Nc1nn(C)c2nc(Nc3ccc4c(c3)CN(CC3(NC(=O)COc5ccc6c(c5)C(=O)N(C5CCC(=O)NC5=O)C6=O)CC3)CC4)ncc12 (centres unmarked) [Compound 205, N-(1-((7-((3-((2,6-dimethylphenyl)amino)-1-methyl-1H-pyrazolo[3,4-d]pyrimidin-6-yl)amino)-3,4-dihydroisoquinolin-2 (1H)-yl)methyl)cyclopropyl)-2-((2-(2,6-dioxopiperidin-3-yl)-1,3-dioxoisoindolin-5-yl)oxy)acetamide]	10 to 1000
Cc1cccc(C)c1Nc1nn(C)c2nc(Nc3ccc(N4CCN(CC5CCN(c6cc7c(cc6F)C(=O)N(C6CCC(=O)NC6=O)C7)CC5)CC4)cc3)ncc12 (centres unmarked) [Compound 245, 3-(5-(4-((4-(4-((3-((2,6-Dimethylphenyl)amino)-1-methyl-1H-pyrazolo[3,4-d]pyrimidin-6-yl)amino)phenyl)piperazin-1-yl)methyl)piperidin-1-yl)-6-fluoro-1-oxoisoindolin-2-yl)piperidin-2,6-one]	0.1 to 10
Cc1cccc(C)c1Nc1nn(C)c2nc(Nc3ccc(N4CCN(CC5CN(c6ccc7c(n6)CN(C6CCC(=O)NC6=O)C7=O)C5)CC4)cc3)ncc12 (centres unmarked) [Compound 187, 3-(2-(3-((4-(4-((3-((2,6-Dimethylphenyl)amino)-1-methyl-1H-pyrazolo[3,4-d]pyrimidin-6-yl)amino)phenyl)piperazin-1-yl)methyl)azetidin-1-yl)-5-oxo-5,7-dihydro-6H-pyrrolo[3,4-b]pyridin-6-yl)piperidin-2,6-one]	0.1 to 10
Cc1cccc(C)c1Nc1nn(C)c2nc(Nc3ccc4c(c3)CN(C3CCN(C[C@@H]5CCCN(c6ccc7c(c6)C(=O)N(C6CCC(=O)NC6=O)C7=O)C5)CC3)CC4)ncc12 (stereo partly drawn) [Compound 141, 5-((S)-3-((4-(7-((3-((2,6-dimethylphenyl)amino)-1-methyl-1H-pyrazolo[3,4-d]pyrimidin-6-yl)amino)-3,4-dihydroisoquinolin-2 (1H)-yl)piperidin-1-yl)methyl)piperidin-1-yl)-2-(2,6-dioxopiperidin-3-yl)isoindoline-1,3-dione]	0.1 to 10
Cc1cccc(C)c1Nc1nn(C)c2nc(Nc3ccc4c(c3)CN(CC(=O)N3CCN(c5ccc6c(c5)CN(C5CCC(=O)NC5=O)C6=O)CC3)CC4)ncc12 (centres unmarked) [Compound 103, 3-(5-(4-(2-(7-((3-((2,6-dimethylphenyl)amino)-1-methyl-1H-pyrazolo[3,4-d]pyrimidin-6-yl)amino)-3,4-dihydroisoquinolin-2 (1H)-yl)acetyl)piperazin-1-yl)-1-oxoisoindolin-2-yl)piperidin-2,6-one]	10 to 1000
Cc1cccc(C)c1Nc1nn(C)c2nc(Nc3ccc4c(c3)CN(CC3CN(C(=O)CN5CCN(c6ccc7c(c6)C(=O)N(C6CCC(=O)NC6=O)C7=O)CC5)C3)CC4)ncc12 (centres unmarked) [Compound 39, 5-(4-(2-(3-((7-((3-((2,6-Dimethylphenyl)amino)-1-methyl-1H-pyrazolo[3,4-d]pyrimidin-6-yl)amino)-3,4-dihydroisoquinolin-2 (1H)-yl)methyl)azetidin-1-yl)-2-oxoethyl)piperazin-1-yl)-2-(2,6-dioxopiperidin-3-yl)isoindoline-1,3-dione]	0.1 to 10
